The values that follow are results of earlier work, collected in patent EP0580641B1, “NEW THALIDOMIDE DERIVATIVES, METHOD OF MANUFACTURE AND USE THEREOF IN MEDICAMENTS” (Grünenthal GmbH, priority 1991, dated 1992).

Molecules are shown by their SMILES.

The conditions of the data set: cited from Arch. Pharm. 321, 371 (1988).

`O=C1CCC(N2C(=O)c3ccccc3C2=O)C(=O)N1` (stereo not shown) [Thalidomid, 3-Phthalimido-piperidin-2,6-dion]: the Wasserlöslichkeit is 0,012 mg/ml.
